The target in data set [1] is T1, carboxypeptidase A (Homo sapiens, UniProt P15085).
T1 sequence (P15085 111-419): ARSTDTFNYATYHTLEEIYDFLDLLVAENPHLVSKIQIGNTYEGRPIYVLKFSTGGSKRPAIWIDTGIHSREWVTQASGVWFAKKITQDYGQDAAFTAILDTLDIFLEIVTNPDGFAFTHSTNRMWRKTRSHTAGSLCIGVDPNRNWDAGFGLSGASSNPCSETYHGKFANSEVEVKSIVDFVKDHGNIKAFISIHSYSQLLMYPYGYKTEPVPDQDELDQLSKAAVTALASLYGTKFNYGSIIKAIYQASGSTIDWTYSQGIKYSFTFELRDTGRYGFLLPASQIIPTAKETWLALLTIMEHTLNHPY
The data set is described as follows: in vitro proteolytic stability, carboxypeptidase A. As for the experimental part: The stability of SEQ ID NO:3 in the presence of several mammalian digestive enzymes was determined. SEQ ID NO:3 was exposed to a variety of in vitro conditions including digestive enzymes and low ph environments designed to simulate gastric fluid. SEQ ID NO:3 was incubated with chymotrypsin, trypsin, pepsin, aminopeptidase, carboxypeptidase A, and simulated gastric fluid (sgf) at ph 1.0. Samples were collected at 0, 3, and 24 h for all conditions except pepsin digestion and the SGF. For the latter two conditions, samples were obtained at 0, 1, and 3 h. Negative control samples were prepared for initial and final time points. A separate, positive activity control was run in parallel to SEQ ID NO:3. All samples were analyzed by LC/MS
Five (5) μL of a 40 μg/mL carboxypeptidase inhibitor (carboxypeptidase inhibitor from potato tuber (Sigma-Aldrich, C0279) stock was added to each control sample (0 and 24 h), for a final concentration of 0.4 μg/mL. All control and test (0, 3 and 24 h) samples were incubated at 37° C. for 5 min. Twenty (20) μL of a 0.01 mg/mL carboxypeptidase A (Carboxypeptidase A from human pancreas; Sigma-Aldrich, C5358) stock was added to each sample. The samples were returned to the 37° C. water bath. The reaction was quenched with 5 μL of a 40 μg/mL carboxypeptidase inhibitor at the proper time point. No extra carboxypeptidase inhibitor was added to the control samples since there was already inhibitor present. Samples were subsequently flash frozen in liquid nitrogen, and stored at −80° C. until analysis. Upon analysis, samples were thawed and transferred to a 1 mL 96-well deep microtiter plate. […] These standards were used to generate a standard curve for quantification of samples. When necessary, the standard curves were also used to calculate the concentration of the corresponding digestion product. Ten (10) μL injections were made of each sample and standard.
To further study the SEQ ID NO:3 carboxypeptidase A digestion product, samples of 0.01 mg/mL SEQ ID NO:3 were prepared in the carboxypeptidase A reaction buffer at a total volume of 500 μL in 2 mL eppendorf tubes. Triplicate samples were prepared for the following time points: 0, 15, 30, 60, 120, 180 and 240 min. The samples were incubated at 37° C. for 5 min. Twenty (20) μL of a 0.01 mg/mL carboxypeptidase A stock were added to each sample and returned to the 37° C. water bath. The reactions were quenched with 5 μL of a 40 μg/mL carboxypeptidase inhibitor at the proper time points. Samples were subsequently flash frozen in liquid nitrogen, and stored at −80° C. until analysis. Upon analysis, samples were thawed and transferred to a 1 mL 96-well plate. Standards of SEQ ID NO:3 were prepared in carboxypeptidase A reaction buffer at 0.625, 1.25, 2.50, 5.00, and 10.00 μg/mL concentrations. These standards were used to generate a standard curve for quantification of samples. When necessary, the standard curves were also used to calculate the concentration of the corresponding digestion product. Ten (10) μL injections were made of each sample and standard. If the formation of a digestion product was evident, then a spectral analysis was used to determine the mass of the digestion product, and predict its possible identity.

The subject of data set [2] is female Wistar rats. Briefly: partial restraint stress-induced hyperalgesia model. The data set is classed as in vivo, rat. Conditions: oral 0.3 and 3.0 μg/kg, distending pressure 15 mm Hg, p<0.0001, FIG. 7b. As for the experimental part: Five groups of female Wistar rats (weighing 200-250 g each), were surgically prepared for electromyography as described (Morteau et al. 1994 Dig Dis Sci 39:1239-48) and were used to evaluate the effects of SEQ ID NO:3 on colorectal sensitivity and compliance after a 2 hour partial restraint stress session. Partial restraint stress (PRS), a relatively mild stress, was induced as previously described (Morteau et al. 1994 Dig Dis Sci 39:1239-48). Female rats were lightly anesthetized with diethyl ether and their shoulders, upper forelimbs and thoracic trunk were wrapped in a confining harness of paper tape to restrict, but not prevent body movements. Control sham-stress animals were anesthetized but not wrapped. […] Electrical activity was recorded with an electroencephalograph (Mini VIII, Alvar, Paris, France) using a short time constant (0.03 sec.) to remove low-frequency signals (<3 Hz) and a paper speed of 3.6 cm/minute. […] Colonic pressure and balloon volume were continuously monitored on a potentiometric recorder (L6514, Linseis, Selb, Germany) with a paper speed of 1.0 cm/minute. The number of spike bursts, corresponding to abdominal contractions, was evaluated per 5-minute period. Colorectal volumes were determined as the maximal volume obtained for each stage of distension using the potentiometric recorder. […] The values were expressed as mean±SEM.

The structures appear in SMILES notation. Where a SMILES comes first, the peptide text is derived from it. Bridges are numbered along the chain shown (N, C = ends).

As to `C[C@@H]1NC(=O)[C@@H]2CCCN2C(=O)[C@H](CC(N)=O)NC(=O)[C@@H]2CSSC[C@H](N)C(=O)N[C@H]3CSSC[C@H](NC1=O)C(=O)N[C@@H]([C@@H](C)O)C(=O)NCC(=O)N[C@H](C(=O)N[C@@H](Cc1ccc(O)cc1)C(=O)O)CSSC[C@H](NC(=O)[C@H](Cc1ccc(O)cc1)NC(=O)[C@H](CCC(=O)O)NC3=O)C(=O)N2` [SEQ ID NO:3] (H-CCEYCCNPACTGCY-OH; disulfide 1-6, 2-10, 5-13; N-terminus and C-terminus assumed), the “proteolysis by carboxypeptidase A” value in data set [1] (37° C., FIG. 13a, 13b) is “some proteolysis”. In addition, the “Cleavage of SEQ ID NO: 3 by proteolytic substance” value in data set [1] (Carboxypetidase A, 37° C., up to 24 h) was “Yes”. Also, the entries for the “average calculated product concentrations” value in data set [1] (T3 h samples) and in data set [1] (T24 h samples) were 1.3 (+/−0.06) μg/mL and 1.3 (+/−0.04) μg/mL, respectively. Besides, in data set [1] (all samples), the “calculated concentrations of parent” value was 8.4 (+/−1.2) μg/mL. Besides, the average concentration in data set [1] (carboxypeptidase A digestion of SEQ ID NO:3, T0) is 5115 (+/−121) nM; in data set [1] (carboxypeptidase A digestion of SEQ ID NO:3, T240 (240 min)), 4438 (+/−188) nM. Moreover, the “calculated concentrations for the products” value in data set [1] (time 0 control (with inhibitor)) was 0.8 (+/−0.02) μg/mL; in data set [1] (time 0 samples), 0.8 (+/−0.01) μg/mL. Further, the “response to CRD after partial restraint stress” value in data set [2] was “reduced the response to CRD after PRS”.

The values above are taken from US20090305993A1, “METHODS AND COMPOSITION FOR THE TREATMENT OF GASTROINTESTINAL DISORDERS” (IRONWOOD PHARMACEUTICALS, INC., priority 2006, published 2009).
